What was measured:
[1] = target: T1, FAAH (Fatty Acid Amide Hydrolase) (Mus musculus, UniProt O08914); test: radioenzymatic assay of anandamide hydrolysis by FAAH (mouse brain membrane homogenates); type: biochemical; conditions: concentration inhibiting by 50% the control enzyme activity of FAAH; mouse brain membranes, 10 μM anandamide, 15 minutes at 25° C.
T1 construct: Membrane homogenates are prepared at the time of use by homogenizing the tissues in a Polytron; from tissue; host or cells: mouse brain (minus the cerebellum), membrane homogenate
T1 sequence (O08914 1-579): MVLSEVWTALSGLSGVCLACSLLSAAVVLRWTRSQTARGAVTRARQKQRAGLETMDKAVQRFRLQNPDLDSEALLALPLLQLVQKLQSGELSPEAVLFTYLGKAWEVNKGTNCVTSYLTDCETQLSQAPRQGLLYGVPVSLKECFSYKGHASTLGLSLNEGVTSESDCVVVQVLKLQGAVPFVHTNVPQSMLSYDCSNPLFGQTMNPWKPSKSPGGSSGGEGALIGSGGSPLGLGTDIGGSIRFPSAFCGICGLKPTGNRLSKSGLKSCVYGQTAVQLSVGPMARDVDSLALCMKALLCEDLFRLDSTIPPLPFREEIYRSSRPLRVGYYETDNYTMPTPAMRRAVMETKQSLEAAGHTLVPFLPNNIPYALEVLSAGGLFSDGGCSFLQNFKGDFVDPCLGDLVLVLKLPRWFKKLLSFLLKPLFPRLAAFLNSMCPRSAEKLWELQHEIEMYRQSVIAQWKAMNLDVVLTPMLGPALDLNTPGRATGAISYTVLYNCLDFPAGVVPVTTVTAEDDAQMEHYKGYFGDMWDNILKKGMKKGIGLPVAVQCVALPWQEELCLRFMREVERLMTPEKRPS
Procedure: The compounds of the invention were subjected to pharmacological tests permitting determination of their inhibitory effect on the enzyme FAAH (Fatty Acid Amide Hydrolase).
Accordingly, mouse brains (minus the cerebellum) are removed and stored at −80° C. Membrane homogenates are prepared at the time of use by homogenizing the tissues in a Polytron in a 10 mM Tris HCl buffer (pH 8.0) containing 150 mM NaCl and 1 mM EDTA. The enzyme reaction is subsequently conducted in 70 μl of buffer, containing bovine serum albumin without fatty acids (1 mg/ml). In succession, the test compounds, at various concentrations, anandamide [ethanolamine 1-^3H] (specific activity: 15-20 Ci/mmol) diluted to 10 μM with cold anandamide, and the membrane preparation (400 μg of frozen tissue per assay) are added. After 15 minutes at 25° C., the enzyme reaction is terminated by adding 140 μl of chloroform/methanol. (2:1). The mixture is stirred for 10 minutes then centrifuged for 15 minutes at 3500 g. An aliquot (30 μl) of the aqueous phase, containing the ethanolamine [1-^3H], is counted by liquid scintillation.

male OF1 mice = test: analgesia test: abdominal stretches induced by PBQ (phenylbenzoquinone) i.p.; type: in vivo
Procedure: The in vivo activity of the compounds of the invention was evaluated in an analgesia test. Accordingly, intraperitoneal (i.p.) administration of PBQ (phenylbenzoquinone, 2 mg/kg in a 0.9% sodium chloride solution containing 5% of ethanol) to male OF1 mice weighing 25 to 30 g causes abdominal stretches, on average 30 twists or contractions during the period from 5 to 15 minutes after injection. The test compounds are administered orally in suspension in Tween 80 at 0.5%, 60 minutes or 120 minutes before the administration of PBQ.

Row | SMILES | IC50 [1] [nM] | melting point [°C] | Reduction in number of stretches (%) (male OF1 mice; (b) 3 mg/kg p.o. at 1 hour) | Reduction in number of stretches (%) (male OF1 mice; (a) 1 mg/kg p.o. at 2 hours)
1 | NC(=O)COC(=O)NCCc1ccc(-n2ccc3cccnc32)cc1 [Compound 224] | – | 110 to 112 | – | –
2 | CNC(=O)COC(=O)NCCc1ccc(C(F)(F)F)cc1 [Compound 125, 2-(methylamino)-2-oxoethyl 2-[4-(trifluoromethyl)phenyl]ethylcarbamate] | – | 140 to 142 | – | –
3 | NC(=O)COC(=O)NCC1(c2ccc(-c3ccc(F)cc3)cc2)CC1 [Compound 145, 2-amino-2-oxoethyl 1-(4′-fluoro-1,1′-biphenyl-4-yl)cyclopropylmethylcarbamate] | – | 139 to 141 | – | –
4 | NC(=O)COC(=O)NCc1ccc(-n2cnc(-c3ccccc3)c2)cc1 [Compound 84, 2-amino-2-oxoethyl [4-(4-phenyl-1H-imidazol-1-yl)phenyl]methylcarbamate] | – | 200 to 203 | – | –
5 | CNC(=O)COC(=O)NCc1ccc(-c2ccccn2)cc1 [Compound 81, 2-(methylamino)-2-oxoethyl 4-pyridin-2-ylbenzylcarbamate] | – | 151 to 153 | – | –
6 | CNC(=O)COC(=O)NCc1ccc(-c2ccc(F)cc2)cc1Cl [Compound 9, 2-(methylamino)-2-oxoethyl (3-chloro-4′-fluoro-1,1′-biphenyl-4-yl)methylcarbamate] | – | 170 to 172 | – | –
7 | CNC(=O)COC(=O)NCCc1ccc(-c2ccc(F)cc2)cc1F [Compound 141, 2-(methylamino)-2-oxoethyl 2-(3,4′-difluoro-1,1′biphenyl-4-yl)ethylcarbamate] | – | 164 to 166 | – | –

More lines, main results first:

Row | IC50 [1] [nM] | melting point [°C] | SMILES | Reduction in number of stretches (%) (male OF1 mice; (b) 3 mg/kg p.o. at 1 hour) | Reduction in number of stretches (%) (male OF1 mice; (a) 1 mg/kg p.o. at 2 hours)
8 | 142 | 111 to 113 | CNC(=O)COC(=O)NCCc1ccc(Oc2ccccc2)cc1 [Compound 194] | −55% (b) | –
9 | – | 82 to 84 | CNC(=O)COC(=O)NCCc1cccc(Oc2ccccc2)c1 [Compound 197, 2-(methylamino)-2-oxoethyl 2-(3-phenyloxyphenyl)ethylcarbamate] | – | –
10 | – | 133 to 135 | CNC(=O)COC(=O)NCCc1ccc(Oc2ccc(Cl)cc2)cc1 [Compound 196, 2-(methylamino)-2-oxoethyl 2-{4-[(4-chlorophenyl)oxy]phenyl}ethylcarbamate] | – | –
11 | 140 | 147 to 149 | CNC(=O)COC(=O)NCCc1ccc(-c2ccc(Cl)cc2Cl)cc1 [Compound 178] | −53% (b) | –
12 | – | 189 to 190 | CNC(=O)COC(=O)NCc1ccc(-c2ccccc2)cc1 [Compound 1, 2-(methylamino)-2-oxoethyl 1,1′-biphenyl-4-ylmethylcarbamate] | – | –
13 | 102 | 178 to 180 | CNC(=O)COC(=O)NCCc1ccc(-c2ccc(F)c(Cl)c2)cc1 [Compound 192, 2-(methylamino)-2-oxoethyl 2-(3′-chloro-4′-fluoro-1,1′-biphenyl-4-yl)ethylcarbamate] | – | −43% (a)
14 | 108 | 157 to 159 | CNC(=O)COC(=O)NCCc1ccc(-c2cccc(C#N)c2)cc1 [Compound 171, 2-(methylamino)-2-oxoethyl 2-(3′-cyano-1,1′-biphenyl-4-yl)ethylcarbamate] | – | −51% (a)
15 | 63 | 186 to 188 | CNC(=O)COC(=O)NCCc1ccc(-c2ccc(Cl)cc2)cc1 [Compound 150, 2-(methylamino)-2-oxoethyl 2-(4′-chloro-1,1′-biphenyl-4-yl)ethylcarbamate] | −57% (b) | –

— US7632850B2, “Arylalkylcarbamate derivatives and production thereof” (Sanofi-aventis, priority 2003, dated 2009)
